Source: patent US9416128B2, “Fused heterocyclic compounds as ion channel modulators” (Gilead Sciences, Inc., priority 2013, dated 2016)

Columns and labels:
[1] = molecular target: wild-type human cardiac sodium channel, hNaV 1.5 (Late INa) (Homo sapiens, UniProt Q14524); assay: Late INa screening assay (whole cell patch clamp, QPatch, Tefluthrin-induced late current); type: cell-based; conditions: HEK293, % inhibition (percent block of late INa) at 1 uM; HEK293 hNaV1.5; 10 μM Tefluthrin; read-out: Nav1.5 Late INa 1 uM
Procedure, shortened: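 HEK293 cells stably expressing hNaV1.5 without beta subunits, whole-cell patch clamp at 23-25° C; late current induced by 10 μM Tefluthrin, measured 240-265 ms into 250 ms steps to −20 mV from −120 mV at 0.1 Hz. Compounds typically 0.3 or 1 μM, three additions over 5 min; percent block normalized to 0Na baseline with rundown correction.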

[2] = molecular target: T1, hNaV1.2 (SCN2A) (Homo sapiens, UniProt Q99250); assay: Use-dependent inhibition of the CNS NaV1.2 sodium channel; type: cell-based; conditions: HEK-293, % inhibition, 25 Hz; for inhibition at 1 µM: use-dependent block at 1 uM, read-out: Nav1.2 UDB 25 Hz 1 uM; for inhibition at 10 µM: use-dependent block at 10 uM, read-out: Nav1.2 UDB 25 Hz 10 uM
T1 construct: expressed in transfected cells
Description: HEK-293 cells stably expressing wild-type (WT) hNaV1.2 (SCN2A NCBI # NM_021007.2, SCN1B NCBI # NM_001037.4, SCN2B NCBI # NM_004588.2) were used to record INa. Cells are maintained with standard tissue culture procedures and stable channel expression is maintained with 800 ug/mL G418 and 3 ug/mL Puromycin in the culture medium. Unless otherwise noted, all reagents are purchased from Sigma-Aldrich (St Louis, Mo., U.S.A.).
Assays measuring Use-Dependent Block (UDB) of NaV1.2 are performed on an automated electrophysiology platform, QPatch 16X or QPatch HT (Sophion Bioscience, Copenhagen, Denmark), using the whole cell patch clamp technique to measure currents through the cell membrane. Series resistance compensation is set to 100% and series resistance and whole-cell compensation are performed automatically. Currents stored in the Sophion Bioscience Oracle database (Sophion Bioscience, Copenhagen, Denmark). Analysis is performed using QPatch Assay software and data are compiled in Excel 2010 (Microsoft, Seattle, Wash., U.S.A.). The internal (pipette) solution consists of (in mM) 105 CsF, 10 NaF, 20 CsCl, 2 EGTA, 10 HEPES, 10 Dextrose with a pH of 7.35 and osmolarity of 300 mOsmol/kg. The external (bath) solution contains in (mM): 145 NaCl, 4 KCl, 1.8 CaCl2, 1 MgCl2, 10 dextrose, 10 HEPES, with a pH of 7.35 and osmolarity of 310 mOsmol/kg. Experiments are carried out at 23-25° C.
Compound stocks are routinely made by the Gilead Sample Bank in vials to 10 mM in dimethyl sulfoxide (DMSO). In some cases, when compounds are not soluble in DMSO, they are made in 100% ethanol. Stocks are sonicated as necessary. […]
Cells are allowed to stabilize for 10 min after establishment of the whole-cell configuration before current is measured. The test compound is applied 2 times at 60 second intervals. After the second compound addition, a 200 second wait period was imposed to allow for equilibration. Leak currents are subtracted by using an online P/4 procedure and all currents are low-pass Bessel filtered at 5 kHz and digitized at […].
Results are presented as mean percentage inhibition.
Use-dependent block of NaV1.2 peak current is measured during pulse number 20 of a voltage pulse train (0 mV, 20 ms, 20 pulses, 25 Hz) from a holding potential of −120 mV.
Currents are normalized to the peak current recorded in response to the first pulse in each frequency train. The voltage protocol for UDB was performed in the absence and presence of compound and percentage inhibition was calculated with respect to the compound free condition.
Data analysis is performed using QPatch Assay Software 4.0, and Excel 2002 (Microsoft, Seattle, Wash., U.S.A.).

T1 sequence (Q99250 whole entry): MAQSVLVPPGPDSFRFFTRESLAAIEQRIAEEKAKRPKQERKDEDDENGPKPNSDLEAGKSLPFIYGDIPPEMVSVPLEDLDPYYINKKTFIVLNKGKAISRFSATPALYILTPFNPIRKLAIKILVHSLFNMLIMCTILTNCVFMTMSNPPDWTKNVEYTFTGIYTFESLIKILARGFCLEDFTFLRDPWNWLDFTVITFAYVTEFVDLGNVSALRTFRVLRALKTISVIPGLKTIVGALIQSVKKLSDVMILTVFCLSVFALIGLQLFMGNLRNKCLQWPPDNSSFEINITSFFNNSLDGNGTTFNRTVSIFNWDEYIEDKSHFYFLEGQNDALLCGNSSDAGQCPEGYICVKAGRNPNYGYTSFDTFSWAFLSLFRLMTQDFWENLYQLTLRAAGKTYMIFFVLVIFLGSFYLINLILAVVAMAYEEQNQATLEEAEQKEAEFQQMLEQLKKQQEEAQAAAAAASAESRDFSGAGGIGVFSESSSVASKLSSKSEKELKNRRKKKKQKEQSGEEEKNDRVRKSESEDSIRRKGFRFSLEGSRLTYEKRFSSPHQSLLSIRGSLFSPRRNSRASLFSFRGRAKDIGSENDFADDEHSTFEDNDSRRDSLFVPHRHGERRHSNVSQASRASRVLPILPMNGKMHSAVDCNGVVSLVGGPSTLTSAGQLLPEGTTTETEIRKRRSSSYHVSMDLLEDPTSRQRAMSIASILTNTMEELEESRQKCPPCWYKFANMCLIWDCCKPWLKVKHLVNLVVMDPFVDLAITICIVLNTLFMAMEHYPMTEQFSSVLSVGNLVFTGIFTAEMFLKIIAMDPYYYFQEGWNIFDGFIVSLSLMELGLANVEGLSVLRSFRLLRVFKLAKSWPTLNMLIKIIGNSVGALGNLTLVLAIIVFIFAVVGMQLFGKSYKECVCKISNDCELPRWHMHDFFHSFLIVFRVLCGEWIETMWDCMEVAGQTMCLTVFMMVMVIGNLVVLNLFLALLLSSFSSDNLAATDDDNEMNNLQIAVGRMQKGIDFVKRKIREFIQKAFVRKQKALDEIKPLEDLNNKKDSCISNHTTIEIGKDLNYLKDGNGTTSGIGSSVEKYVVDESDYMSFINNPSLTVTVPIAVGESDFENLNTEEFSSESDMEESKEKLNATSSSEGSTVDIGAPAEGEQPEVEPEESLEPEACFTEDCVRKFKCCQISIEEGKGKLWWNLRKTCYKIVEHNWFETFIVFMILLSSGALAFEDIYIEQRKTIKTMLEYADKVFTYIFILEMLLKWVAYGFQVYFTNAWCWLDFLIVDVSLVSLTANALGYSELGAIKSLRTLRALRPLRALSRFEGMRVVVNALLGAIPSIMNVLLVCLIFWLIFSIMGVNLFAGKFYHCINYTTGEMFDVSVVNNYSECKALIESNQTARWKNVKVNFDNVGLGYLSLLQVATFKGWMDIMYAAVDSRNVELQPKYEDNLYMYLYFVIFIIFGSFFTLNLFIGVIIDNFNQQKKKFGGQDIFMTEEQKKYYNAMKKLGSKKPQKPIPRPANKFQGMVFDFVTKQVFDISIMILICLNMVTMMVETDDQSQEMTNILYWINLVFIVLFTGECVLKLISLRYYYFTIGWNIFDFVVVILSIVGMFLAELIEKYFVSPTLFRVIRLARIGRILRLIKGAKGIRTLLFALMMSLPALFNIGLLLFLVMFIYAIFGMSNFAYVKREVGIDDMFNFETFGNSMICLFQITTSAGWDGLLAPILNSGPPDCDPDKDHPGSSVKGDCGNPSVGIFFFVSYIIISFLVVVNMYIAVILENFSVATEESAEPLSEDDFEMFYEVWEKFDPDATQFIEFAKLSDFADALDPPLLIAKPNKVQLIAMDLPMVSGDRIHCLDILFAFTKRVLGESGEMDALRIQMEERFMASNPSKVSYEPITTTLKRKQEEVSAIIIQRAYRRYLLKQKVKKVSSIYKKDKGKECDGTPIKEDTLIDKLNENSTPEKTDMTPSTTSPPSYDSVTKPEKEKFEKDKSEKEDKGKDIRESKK
T1 sequence (Q07699 19-218 partner): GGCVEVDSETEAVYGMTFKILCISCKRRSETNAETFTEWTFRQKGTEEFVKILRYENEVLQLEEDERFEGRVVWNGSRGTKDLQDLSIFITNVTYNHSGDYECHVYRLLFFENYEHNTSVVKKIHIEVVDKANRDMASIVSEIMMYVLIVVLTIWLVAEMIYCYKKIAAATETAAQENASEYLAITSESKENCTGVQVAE
T1 sequence (O60939 30-215 partner): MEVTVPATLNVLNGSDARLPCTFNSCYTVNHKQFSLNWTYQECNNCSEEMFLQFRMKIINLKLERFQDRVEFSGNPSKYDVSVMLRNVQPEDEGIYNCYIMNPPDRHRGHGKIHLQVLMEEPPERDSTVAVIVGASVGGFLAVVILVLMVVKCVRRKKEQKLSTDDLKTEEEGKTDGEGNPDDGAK
Sequence of wild-type human cardiac sodium channel, hNaV 1.5 (Late INa) (Q14524 whole entry): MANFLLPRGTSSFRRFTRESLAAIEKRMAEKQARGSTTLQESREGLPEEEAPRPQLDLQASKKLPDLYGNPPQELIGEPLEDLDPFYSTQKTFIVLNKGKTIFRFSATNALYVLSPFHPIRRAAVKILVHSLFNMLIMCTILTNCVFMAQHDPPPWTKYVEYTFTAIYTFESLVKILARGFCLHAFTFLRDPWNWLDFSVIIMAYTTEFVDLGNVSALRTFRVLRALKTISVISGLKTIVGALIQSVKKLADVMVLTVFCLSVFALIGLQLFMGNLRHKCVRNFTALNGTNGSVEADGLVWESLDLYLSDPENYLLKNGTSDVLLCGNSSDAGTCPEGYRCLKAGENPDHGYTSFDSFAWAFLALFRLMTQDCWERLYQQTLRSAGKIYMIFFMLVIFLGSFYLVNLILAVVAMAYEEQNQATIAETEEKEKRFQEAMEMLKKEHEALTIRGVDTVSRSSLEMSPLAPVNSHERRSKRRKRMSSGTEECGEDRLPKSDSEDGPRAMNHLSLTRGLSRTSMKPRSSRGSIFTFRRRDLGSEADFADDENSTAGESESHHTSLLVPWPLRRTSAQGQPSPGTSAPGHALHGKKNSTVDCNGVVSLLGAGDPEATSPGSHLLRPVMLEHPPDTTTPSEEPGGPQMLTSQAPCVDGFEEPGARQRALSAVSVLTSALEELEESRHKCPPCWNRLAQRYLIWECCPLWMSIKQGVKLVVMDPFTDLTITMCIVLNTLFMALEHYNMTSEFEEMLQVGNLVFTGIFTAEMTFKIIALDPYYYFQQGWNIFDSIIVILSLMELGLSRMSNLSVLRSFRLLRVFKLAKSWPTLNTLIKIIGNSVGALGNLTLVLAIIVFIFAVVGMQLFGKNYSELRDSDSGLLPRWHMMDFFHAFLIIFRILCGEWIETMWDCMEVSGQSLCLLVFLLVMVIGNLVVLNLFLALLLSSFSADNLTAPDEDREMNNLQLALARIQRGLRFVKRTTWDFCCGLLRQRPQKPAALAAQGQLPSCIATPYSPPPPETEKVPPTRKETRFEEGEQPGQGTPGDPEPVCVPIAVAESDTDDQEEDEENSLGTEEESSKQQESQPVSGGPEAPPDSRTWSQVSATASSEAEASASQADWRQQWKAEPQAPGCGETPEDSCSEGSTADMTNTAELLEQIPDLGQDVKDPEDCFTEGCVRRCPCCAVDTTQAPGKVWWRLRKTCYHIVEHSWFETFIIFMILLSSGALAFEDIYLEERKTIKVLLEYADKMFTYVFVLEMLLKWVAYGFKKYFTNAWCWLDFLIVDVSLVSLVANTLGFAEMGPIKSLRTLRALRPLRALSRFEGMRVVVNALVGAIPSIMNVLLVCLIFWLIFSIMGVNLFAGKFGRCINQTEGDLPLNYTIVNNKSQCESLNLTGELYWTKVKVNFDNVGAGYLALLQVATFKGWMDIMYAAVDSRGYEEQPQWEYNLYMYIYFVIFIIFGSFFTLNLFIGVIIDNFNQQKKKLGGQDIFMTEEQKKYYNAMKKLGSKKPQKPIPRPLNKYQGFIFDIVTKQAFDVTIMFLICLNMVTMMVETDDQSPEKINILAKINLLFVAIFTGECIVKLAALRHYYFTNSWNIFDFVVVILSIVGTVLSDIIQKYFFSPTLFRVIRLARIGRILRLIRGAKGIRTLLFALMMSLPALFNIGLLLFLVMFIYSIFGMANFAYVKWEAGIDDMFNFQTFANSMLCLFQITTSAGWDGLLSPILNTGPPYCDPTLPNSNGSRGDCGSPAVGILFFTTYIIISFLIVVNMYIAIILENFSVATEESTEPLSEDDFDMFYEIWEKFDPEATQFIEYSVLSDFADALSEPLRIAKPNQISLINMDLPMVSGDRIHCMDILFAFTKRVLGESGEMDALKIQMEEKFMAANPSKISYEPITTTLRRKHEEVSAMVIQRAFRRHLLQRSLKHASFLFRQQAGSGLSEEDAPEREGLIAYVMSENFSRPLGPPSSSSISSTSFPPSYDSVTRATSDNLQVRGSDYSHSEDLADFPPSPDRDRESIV

`COc1cc(C(F)(F)F)ccc1-c1ccc2c(c1)CN(Cc1ncccn1)C(=O)O2` [Example 34, 6-(2-methoxy-4-(trifluoromethyl)phenyl)-3-(pyrimidin-2-ylmethyl)-3,4-dihydro-2H-benzo[e][1,3]oxazin-2-one] gave an inhibition at 1 µM [1] of 44.6%, an inhibition at 1 µM [2] of 38.8% and an inhibition at 10 µM [2] of 78.5%.

Compound `CCOc1cc(C(F)(F)F)ccc1-c1ccc2c(c1)CN(Cc1ncccn1)C(=O)O2` [Example 35, 6-(2-ethoxy-4-(trifluoromethyl)phenyl)-3-(pyrimidin-2-ylmethyl)-3,4-dihydro-2H-benzo[e][1,3]oxazin-2-one] has an inhibition at 1 µM [1] of 49.4%, an inhibition at 1 µM [2] of 39.3% and an inhibition at 10 µM [2] of 75.1%.

Compound `O=C1Oc2ccc(-c3ccc(C(F)(F)F)cc3F)cc2CN1Cc1ncccn1` [Example 36, 6-(2-fluoro-4-(trifluoromethyl)phenyl)-3-(pyrimidin-2-ylmethyl)-3,4-dihydro-2H-benzo[e][1,3]oxazin-2-one] has an inhibition at 1 µM [1] of 43.6%, an inhibition at 1 µM [2] of 19.1% and an inhibition at 10 µM [2] of 55.9%.

`Cc1cc(C(F)(F)F)ccc1-c1ccc2c(c1)CN(Cc1ncccn1)C(=O)O2` [Example 37, 6-(2-methyl-4-(trifluoromethyl)phenyl)-3-(pyrimidin-2-ylmethyl)-3,4-dihydro-2H-benzo[e][1,3]oxazin-2-one] gave an inhibition at 1 µM [1] of 41.1%, an inhibition at 1 µM [2] of 7.8% and an inhibition at 10 µM [2] of 27.1%.

Work on `O=C1Oc2ccc(-c3ccc(C4(C(F)(F)F)CC4)cc3)cc2CN1Cc1ncccn1` [Example 38, 3-(pyrimidin-2-ylmethyl)-6-(4-(1-(trifluoromethyl)cyclopropyl)phenyl)-3,4-dihydro-2H-benzo[e][1,3]oxazin-2-one] yielded an inhibition at 1 µM [1] of 54.2%, an inhibition at 1 µM [2] of 34.1% and an inhibition at 10 µM [2] of 71.8%.

With `CC(C)Oc1cc(OC(F)(F)F)ccc1-c1ccc2c(c1)CN(Cc1ncccn1)C(=O)O2` [Example 39, 6-(2-isopropoxy-4-(trifluoromethoxy)phenyl)-3-(pyrimidin-2-ylmethyl)-3,4-dihydro-2H-benzo[e][1,3]oxazin-2-one] the inhibition at 1 µM [1] was 33.7%, the inhibition at 1 µM [2] was 16% and the inhibition at 10 µM [2] was 59.3%.

`CCOc1cc(OC(F)(F)F)ccc1-c1ccc2c(c1)CN(Cc1ncccn1)C(=O)O2` [Example 40, 6-(2-ethoxy-4-(trifluoromethoxy)phenyl)-3-(pyrimidin-2-ylmethyl)-3,4-dihydro-2H-benzo[e][1,3]oxazin-2-one] was tested, and the inhibition at 1 µM [1] was 49.4%, the inhibition at 1 µM [2] was 16.7% and the inhibition at 10 µM [2] was 62.5%.

Work on `Cc1cnc(CN2Cc3cc(-c4ccc(C(F)(F)F)cc4F)ccc3OC2=O)nc1` [Example 41, 6-(2-fluoro-4-(trifluoromethyl)phenyl)-3-((5-methylpyrimidin-2-yl)methyl)-3,4-dihydro-2H-benzo[e][1,3]oxazin-2-one] yielded an inhibition at 1 µM [1] of 45.7%, an inhibition at 1 µM [2] of 7.1% and an inhibition at 10 µM [2] of 36.2%.

For `COc1cc(C(F)(F)F)ccc1-c1ccc2c(c1)CN(Cc1ncc(C)cn1)C(=O)O2` [Example 42, 6-(2-methoxy-4-(trifluoromethyl)phenyl)-3-((5-methylpyrimidin-2-yl)methyl)-3,4-dihydro-2H-benzo[e][1,3]oxazin-2-one], the inhibition at 1 µM [1] was 42.7%, the inhibition at 1 µM [2] was 13.3% and the inhibition at 10 µM [2] was 47.4%.

With `Cc1cnc(CN2Cc3cc(-c4ccc(C(F)(F)F)cc4C)ccc3OC2=O)nc1` [Example 43, 6-(2-methyl-4-(trifluoromethyl)phenyl)-3-((5-methylpyrimidin-2-yl)methyl)-3,4-dihydro-2H-benzo[e][1,3]oxazin-2-one] the inhibition at 1 µM [1] was 37.9%, the inhibition at 1 µM [2] was < 5% and the inhibition at 10 µM [2] was 48.9%.

`COc1cc(C(F)(F)F)ccc1-c1ccc2c(c1)CN(Cc1cccc(C)n1)C(=O)O2` [Example 44, 6-(2-methoxy-4-(trifluoromethyl)phenyl)-3-((6-methylpyridin-2-yl)methyl)-3,4-dihydro-2H-benzo[e][1,3]oxazin-2-one] gave an inhibition at 1 µM [1] of 44.8%, an inhibition at 1 µM [2] of 20.9% and an inhibition at 10 µM [2] of 68.4%.

`Cc1cccc(CN2Cc3cc(-c4ccc(C(F)(F)F)cc4F)ccc3OC2=O)n1` [Example 45, 6-(2-fluoro-4-(trifluoromethyl)phenyl)-3-((6-methylpyridin-2-yl)methyl)-3,4-dihydro-2H-benzo[e][1,3]oxazin-2-one] showed an inhibition at 1 µM [1] of 53.6%, an inhibition at 1 µM [2] of 10.4% and an inhibition at 10 µM [2] of 62.3%.

`COc1cc(OC(F)(F)F)ccc1-c1ccc2c(c1)CN(Cc1cccc(C)n1)C(=O)O2` [Example 46, 6-(2-methoxy-4-(trifluoromethoxy)phenyl)-3-((6-methylpyridin-2-yl)methyl)-3,4-dihydro-2H-benzo[e][1,3]oxazin-2-one] was tested, and the inhibition at 1 µM [1] was 51.3%, the inhibition at 1 µM [2] was 22.4% and the inhibition at 10 µM [2] was 77.2%.

In the case of `Cc1cccc(CN2Cc3cc(-c4ccc(OC(F)(F)F)cc4F)ccc3OC2=O)n1` [Example 47, 6-(2-fluoro-4-(trifluoromethoxy)phenyl)-3-((6-methylpyridin-2-yl)methyl)-3,4-dihydro-2H-benzo[e][1,3]oxazin-2-one], the inhibition at 1 µM [1] is reported as 52.8%, the inhibition at 1 µM [2] is reported as 14.1% and the inhibition at 10 µM [2] is reported as 55.6%.

`Cc1csc(CN2Cc3cc(-c4ccc(OC(F)(F)F)cc4)ccc3OC2=O)n1` [Example 52, 3-((4-methylthiazol-2-yl)methyl)-6-(4-(trifluoromethoxy)phenyl)-3,4-dihydro-2H-benzo[e][1,3]oxazin-2-one] gave an inhibition at 1 µM [1] of 58%, an inhibition at 1 µM [2] of 20.8% and an inhibition at 10 µM [2] of 63.7%.

`Cc1csc(CN2Cc3cc(-c4ccc(OC(F)(F)F)c(F)c4)ccc3OC2=O)n1` [Example 53, 6-(3-fluoro-4-(trifluoromethoxy)phenyl)-3-((4-methylthiazol-2-yl)methyl)-3,4-dihydro-2H-benzo[e][1,3]oxazin-2-one] gave an inhibition at 1 µM [1] of 60.3%, an inhibition at 1 µM [2] of 32.3% and an inhibition at 10 µM [2] of 73.6%.

Compound `Cc1csc(CN2Cc3cc(-c4ccc(OC(F)(F)F)c(C)c4)ccc3OC2=O)n1` [Example 54, 6-(3-methyl-4-(trifluoromethoxy)phenyl)-3-((4-methylthiazol-2-yl)methyl)-3,4-dihydro-2H-benzo[e][1,3]oxazin-2-one] has an inhibition at 1 µM [1] of 31%, an inhibition at 1 µM [2] of 6.1% and an inhibition at 10 µM [2] of 43.5%.

For `Cc1csc(CN2Cc3cc(-c4ccc(OC(F)(F)F)cc4F)ccc3OC2=O)n1` [Example 55, 6-(2-fluoro-4-(trifluoromethoxy)phenyl)-3-((4-methylthiazol-2-yl)methyl)-3,4-dihydro-2H-benzo[e][1,3]oxazin-2-one], the inhibition at 1 µM [1] was 35.3%, the inhibition at 1 µM [2] was 22.6% and the inhibition at 10 µM [2] was 61.8%.

`Cc1csc(CN2Cc3cc(-c4ccc(Cl)c(Cl)c4)ccc3OC2=O)n1` [Example 56, 6-(3,4-dichlorophenyl)-3-((4-methylthiazol-2-yl)methyl)-3,4-dihydro-2H-benzo[e][1,3]oxazin-2-one] was tested, and the inhibition at 1 µM [1] was 39%, the inhibition at 1 µM [2] was < 5% and the inhibition at 10 µM [2] was 15.2%.

Work on `Cc1csc(CN2Cc3cc(-c4ccc(OC(F)(F)F)cc4Cl)ccc3OC2=O)n1` [Example 57, 6-(2-chloro-4-(trifluoromethoxy)phenyl)-3-((4-methylthiazol-2-yl)methyl)-3,4-dihydro-2H-benzo[e][1,3]oxazin-2-one] yielded an inhibition at 1 µM [1] of 34.1%, an inhibition at 1 µM [2] of 12.8% and an inhibition at 10 µM [2] of 61.5%.

`COc1cc(OC(F)(F)F)ccc1-c1ccc2c(c1)CN(Cc1nc(C)cs1)C(=O)O2` [Example 58, 6-(2-methoxy-4-(trifluoromethoxy)phenyl)-3-((4-methylthiazol-2-yl)methyl)-3,4-dihydro-2H-benzo[e][1,3]oxazin-2-one] showed an inhibition at 1 µM [1] of 44.1%, an inhibition at 1 µM [2] of 10.6% and an inhibition at 10 µM [2] of 58.7%.
